Reference: patent publication US20140249135A1, “PIM KINASE INHIBITORS AND METHODS OF THEIR USE” (NOVARTIS AG, priority 2007, published 2014)
Where “and” joins values, the source holds several entries; their conditions need not be identical. Identical values can stand only once.

What was measured:
[1] = biological target: KDR kinase (Homo sapiens, UniProt P35968); assay: KDR AlphaScreen assay; settings: KDR IC50 (μM)
[2] = biological target: T1, human full length PKCE enzyme (Homo sapiens, UniProt Q02156); assay: In vitro PKCE assay; type: biochemical; settings: 10 nM enzyme, 40 uM peptide substrate, 20 uM ATP, KinaseGlo Plus readout; read-out: PKCε IC50
T1 construct: human full length PKCE enzyme purchased from InVitrogen; purchased InVitrogen
T1 sequence (Q02156 1-737): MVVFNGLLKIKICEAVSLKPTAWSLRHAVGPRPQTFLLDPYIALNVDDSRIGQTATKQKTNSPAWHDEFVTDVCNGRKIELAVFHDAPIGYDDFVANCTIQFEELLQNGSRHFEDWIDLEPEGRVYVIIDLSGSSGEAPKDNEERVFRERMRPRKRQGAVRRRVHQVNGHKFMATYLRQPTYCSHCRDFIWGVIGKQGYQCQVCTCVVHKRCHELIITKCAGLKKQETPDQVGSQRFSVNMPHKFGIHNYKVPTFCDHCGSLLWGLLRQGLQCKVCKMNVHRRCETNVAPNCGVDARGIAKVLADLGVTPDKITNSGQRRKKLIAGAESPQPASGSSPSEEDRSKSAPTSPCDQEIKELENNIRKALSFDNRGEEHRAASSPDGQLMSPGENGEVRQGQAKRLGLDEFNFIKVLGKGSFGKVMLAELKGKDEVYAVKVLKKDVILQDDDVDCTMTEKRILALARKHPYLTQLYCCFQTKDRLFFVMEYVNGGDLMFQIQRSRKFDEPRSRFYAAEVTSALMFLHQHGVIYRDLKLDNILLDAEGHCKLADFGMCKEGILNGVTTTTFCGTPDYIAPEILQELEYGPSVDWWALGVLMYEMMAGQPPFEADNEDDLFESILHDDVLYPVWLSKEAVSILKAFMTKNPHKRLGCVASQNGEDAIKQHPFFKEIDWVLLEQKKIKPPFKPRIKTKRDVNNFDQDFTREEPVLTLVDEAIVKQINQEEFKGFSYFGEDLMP

[3] = biological target: Pim2 kinase (Homo sapiens, UniProt Q9P1W9); assay: Pim2 ATP depletion assay; type: biochemical; settings: read-out: IC50 (μM) PIM2;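 further: Luciferase-based luminescent readout of ATP remaining after PIM2 phosphorylates a BAD peptide, final 5 nM enzyme, 4 µM ATP, 10 µM peptide, 2.5% DMSO, run to roughly half ATP consumption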
[4] = biological target: Pim3 kinase (Homo sapiens, UniProt Q86V86); assay: Pim3 ATP depletion assay; type: biochemical; settings: read-out: IC50 (μM) PIM3
[5] = biological target: Pim1 kinase (Homo sapiens, UniProt P11309); assay: Pim1 ATP depletion assay; type: biochemical; settings: Pim1 ATP depletion assay; read-out: IC50 (μM) PIM1;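 further: Luciferase-luciferin luminescence readout of residual ATP after PIM1 transfers phosphate to a peptide substrate, 40 µM ATP added, reaction run to roughly half ATP consumption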
Chain of Pim1 kinase (P11309 whole entry): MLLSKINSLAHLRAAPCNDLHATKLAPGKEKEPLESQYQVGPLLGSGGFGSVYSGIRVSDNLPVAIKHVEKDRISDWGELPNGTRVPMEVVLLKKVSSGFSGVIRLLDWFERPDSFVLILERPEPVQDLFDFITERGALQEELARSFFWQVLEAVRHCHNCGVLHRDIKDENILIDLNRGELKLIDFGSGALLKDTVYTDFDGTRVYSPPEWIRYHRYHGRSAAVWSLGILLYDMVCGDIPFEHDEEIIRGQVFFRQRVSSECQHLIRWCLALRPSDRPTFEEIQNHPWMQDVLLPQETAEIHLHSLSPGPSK

Chain of KDR kinase (P35968 20-1356): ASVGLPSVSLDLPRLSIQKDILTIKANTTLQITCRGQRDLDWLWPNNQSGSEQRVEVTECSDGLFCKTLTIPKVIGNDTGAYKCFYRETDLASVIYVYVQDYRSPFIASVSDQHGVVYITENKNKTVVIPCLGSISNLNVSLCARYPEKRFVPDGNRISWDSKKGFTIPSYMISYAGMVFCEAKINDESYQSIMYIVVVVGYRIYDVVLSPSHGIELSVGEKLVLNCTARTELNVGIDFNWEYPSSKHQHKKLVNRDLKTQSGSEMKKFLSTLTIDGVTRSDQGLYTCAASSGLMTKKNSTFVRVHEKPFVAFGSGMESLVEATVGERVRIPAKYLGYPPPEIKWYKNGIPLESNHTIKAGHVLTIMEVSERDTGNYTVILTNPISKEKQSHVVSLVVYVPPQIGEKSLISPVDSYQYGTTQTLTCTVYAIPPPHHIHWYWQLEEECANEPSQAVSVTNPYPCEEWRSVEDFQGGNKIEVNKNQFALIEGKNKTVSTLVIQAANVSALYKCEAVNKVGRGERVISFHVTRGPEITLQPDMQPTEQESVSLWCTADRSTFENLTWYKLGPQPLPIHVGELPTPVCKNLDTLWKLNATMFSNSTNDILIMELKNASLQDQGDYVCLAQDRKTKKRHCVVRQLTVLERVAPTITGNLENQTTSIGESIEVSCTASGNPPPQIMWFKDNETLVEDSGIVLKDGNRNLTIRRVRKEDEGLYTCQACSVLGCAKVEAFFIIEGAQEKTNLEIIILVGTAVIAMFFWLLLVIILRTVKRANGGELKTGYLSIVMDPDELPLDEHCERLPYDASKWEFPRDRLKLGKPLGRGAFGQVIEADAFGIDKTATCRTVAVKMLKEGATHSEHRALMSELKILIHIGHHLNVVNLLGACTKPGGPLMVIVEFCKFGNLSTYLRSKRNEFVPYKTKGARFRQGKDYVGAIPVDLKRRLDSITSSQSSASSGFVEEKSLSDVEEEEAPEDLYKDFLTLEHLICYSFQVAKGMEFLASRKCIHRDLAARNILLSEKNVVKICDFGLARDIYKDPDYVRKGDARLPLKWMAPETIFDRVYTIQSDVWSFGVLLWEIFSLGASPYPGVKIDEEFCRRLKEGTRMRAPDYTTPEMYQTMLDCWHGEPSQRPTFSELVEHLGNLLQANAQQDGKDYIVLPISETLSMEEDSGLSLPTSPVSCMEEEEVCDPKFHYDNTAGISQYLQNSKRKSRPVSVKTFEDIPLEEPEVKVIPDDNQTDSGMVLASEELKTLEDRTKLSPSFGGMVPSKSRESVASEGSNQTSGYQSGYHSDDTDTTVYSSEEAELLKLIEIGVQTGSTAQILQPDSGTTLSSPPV
Chain of Pim2 kinase (Q9P1W9 whole entry): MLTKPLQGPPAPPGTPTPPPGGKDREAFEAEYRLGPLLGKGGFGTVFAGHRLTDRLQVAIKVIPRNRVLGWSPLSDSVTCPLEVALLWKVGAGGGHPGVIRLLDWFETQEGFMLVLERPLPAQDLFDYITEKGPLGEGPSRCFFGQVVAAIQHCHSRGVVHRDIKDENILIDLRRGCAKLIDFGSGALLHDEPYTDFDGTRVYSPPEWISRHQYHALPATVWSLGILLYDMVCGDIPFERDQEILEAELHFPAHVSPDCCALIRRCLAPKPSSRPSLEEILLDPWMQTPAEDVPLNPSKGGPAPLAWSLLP

Row | Structure (SMILES) | IC50 [1] [µM] | IC50 [2] [µM] | IC50 [3] [µM] | IC50 [4] | IC50 [5] [µM]
1 | Nc1nccnc1C(=O)Nc1cnccc1N1CCC2(CC1)OCCO2 [Example 127, 3-amino-N-[4-(1,4-dioxa-8-azaspiro[4.5]dec-8-yl)pyridin-3-yl]pyrazine-2-carboxamide] | > 25 | 1 to 10 | > 25 | > 25 µM | 1 to 10
2 | Nc1nccnc1C(=O)Nc1cc(C(=O)C2CC2)ccc1N1CCCC(N)C1 (stereo not drawn) [Example 243, 3-amino-pyrazine-2-carboxylic acid [2-(3-amino-piperidin-1-yl)-5-cyclopropanecarbonyl-phenyl]-amide] | > 25 | 1 to 10 | 10 to 25 | 1 to 10 µM | 1 to 10
3 | Cc1cnc(N)c(C(=O)Nc2cc(C(=O)c3ccccc3)ccc2N2CCNCC2)n1 [Example 440, 3-amino-6-methyl-pyrazine-2-carboxylic acid (5-benzoyl-2-piperazin-1-yl-phenyl)-amide] | 1 to 10 | > 25 | > 25 | 10 to 25 µM | > 25
4 | Nc1nccnc1C(=O)Nc1cc(Cl)ccc1N1CCCC(N)C1 (stereo not drawn) [Example 215, 3-amino-N-[2-(3-aminopiperidin-1-yl)-5-chlorophenyl]pyrazine-2-carboxamide] | > 25 | 1 to 10 | 1 to 10 | < 1 µM | < 1
5 | N#Cc1ccc(N2CCCC(N)C2)c(NC(=O)c2nccnc2N)c1 (stereo not drawn) [Example 230, 3-amino-N-[2-(3-aminopiperidin-1-yl)-5-cyanophenyl]pyrazine-2-carboxamide] | > 25 | < 1 | < 1 | < 1 µM | < 1
6 | Nc1ccc(-c2cnc(N)c(C(F)(F)F)c2)nc1C(=O)Nc1cnccc1N1CCC[C@H](N)C1 [Example 482, 5,6′-Diamino-5′-trifluoromethyl-[2,3′]bipyridinyl-6-carboxylic acid (3-amino-3,4,5,6-tetrahydro-2H-[1,4′]bipyridinyl-3′-yl)-amide] | 10 to 25 | > 25 | < 1 | < 1 µM | < 1
7 | Nc1nccnc1C(=O)Nc1cc(Cl)ccc1N1CCNCC1 [Example 213, 3-amino-N-(5-chloro-2-piperazin-1-ylphenyl)pyrazine-2-carboxamide] | > 25 | 1 to 10 | > 25 | 1 to 10 µM | 1 to 10
8 | Cc1ccc(NC(=O)c2nccnc2N)c(N2CCNCC2)c1 [Example 227, 3-amino-N-(4-methyl-2-piperazin-1-ylphenyl)pyrazine-2-carboxamide] | > 25 | 1 to 10 | > 25 | 1 to 10 µM | 1 to 10

Second part, the molecule after the results:

Row | IC50 [1] [µM] | IC50 [2] [µM] | IC50 [3] [µM] | IC50 [4] | IC50 [5] [µM] | Structure (SMILES)
9 | 1 to 10 | 1 to 10 | > 25 | > 25 µM and 10 to 25 µM | 1 to 10 | Nc1nccnc1C(=O)Nc1cnccc1N1CCCNCC1 [Example 199, 3-amino-N-[4-(1,4-diazepan-1-yl)pyridin-3-yl]pyrazine-2-carboxamide]
10 | 1 to 10 | > 25 | > 25 | 1 to 10 µM | 1 to 10 | Nc1ncc(-c2ccccc2F)nc1C(=O)Nc1cc(C(=O)c2ccccc2)ccc1N1CCNCC1 [Example 438, 3-amino-6-(2-fluoro-phenyl)-pyrazine-2-carboxylic acid (5-benzoyl-2-piperazin-1-yl-phenyl)-amide]
11 | > 25 | 1 to 10 | > 25 | 1 to 10 µM | 1 to 10 | Cc1ccc(N2CCNCC2)c(NC(=O)c2nccnc2N)c1 [Example 216, 3-amino-N-(5-methyl-2-piperazin-1-ylphenyl)pyrazine-2-carboxamide]
12 | > 25 | 10 to 25 | < 1 | < 1 µM | < 1 | Nc1ccc(-c2ccc(N)c(C(=O)Nc3cnccc3N3CCC[C@H](N)C3)n2)c(F)n1 [Example 484, 5,6′-Diamino-2′-fluoro-[2,3′]bi-pyridinyl-6-carboxylic acid (3-amino-3,4,5,6-tetrahydro-2H-[1,4′]bipyridinyl-3′-yl)-amide]
